Assay results from PubChem BioAssay (NCI).
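All cell lines were grown in 96-well plates and treated with compound for 48 hours. At the TGI there is no net growth.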

Columns and labels:
Assay in all cases: NCI tumour cell line growth inhibition, 48 h
SF-539 CNS = test system: SF-539 CNS
SNB-19 CNS = test system: SNB-19 CNS
A498 renal = test system: A498 renal
SF-268 CNS = test system: SF-268 CNS
UO-31 renal = test system: UO-31 renal
SN12C renal = test system: SN12C renal
SK-MEL-28 melanoma = test system: SK-MEL-28 melanoma
PC-3 prostate = test system: PC-3 prostate
HCT-15 colon = test system: HCT-15 colon
MCF7 breast = test system: MCF7 breast
SK-MEL-2 melanoma = test system: SK-MEL-2 melanoma
U251 CNS = test system: U251 CNS
IGROV1 ovarian = test system: IGROV1 ovarian
HS 578T breast = test system: HS 578T breast
UACC-257 melanoma = test system: UACC-257 melanoma
HOP-92 NSCLC = test system: HOP-92 NSCLC
LOX IMVI melanoma = test system: LOX IMVI melanoma
MDA-MB-231 breast = test system: MDA-MB-231 breast
SK-MEL-5 melanoma = test system: SK-MEL-5 melanoma
KM12 colon = test system: KM12 colon
NCI-H460 lung = test system: NCI-H460 lung
OVCAR-5 ovarian = test system: OVCAR-5 ovarian
MDA-MB-435 = test system: MDA-MB-435
NCI-H226 lung = test system: NCI-H226 lung
786-0 renal = test system: 786-0 renal
DU-145 prostate = test system: DU-145 prostate
SF-295 CNS = test system: SF-295 CNS
CAKI-1 renal = test system: CAKI-1 renal
RXF 393 renal = test system: RXF 393 renal
NCI-H522 lung = test system: NCI-H522 lung
BT-549 breast = test system: BT-549 breast
EKVX NSCLC = test system: EKVX NSCLC
OVCAR-8 ovarian = test system: OVCAR-8 ovarian
MDA-N = test system: MDA-N
MALME-3M melanoma = test system: MALME-3M melanoma
HCC-2998 colon = test system: HCC-2998 colon
NCI-H23 lung = test system: NCI-H23 lung
RPMI-8226 leukemia = test system: RPMI-8226 leukemia
NCI/ADR-RES ovarian = test system: NCI/ADR-RES ovarian
SK-OV-3 ovarian = test system: SK-OV-3 ovarian
A549 NSCLC = test system: A549 NSCLC
M14 melanoma = test system: M14 melanoma
OVCAR-3 ovarian = test system: OVCAR-3 ovarian
SW-620 colon = test system: SW-620 colon
UACC-62 melanoma = test system: UACC-62 melanoma
TK-10 renal = test system: TK-10 renal
T-47D breast = test system: T-47D breast
COLO 205 colon = test system: COLO 205 colon
SNB-75 CNS = test system: SNB-75 CNS
HCT-116 colon = test system: HCT-116 colon
HOP-62 NSCLC = test system: HOP-62 NSCLC
ACHN renal = test system: ACHN renal
HT29 colon = test system: HT29 colon
OVCAR-4 ovarian = test system: OVCAR-4 ovarian
HL-60(TB) leukemia = test system: HL-60(TB) leukemia
MOLT-4 leukemia = test system: MOLT-4 leukemia
SR leukemia = test system: SR leukemia
CCRF-CEM leukemia = test system: CCRF-CEM leukemia
K-562 leukemia = test system: K-562 leukemia

Measured: TGI

O=C(O)C(Cc1c[nH]c2ccccc12)N1C(=O)c2ccccc2C1=O (stereo not drawn)
not listed: HL-60(TB) leukemia | MOLT-4 leukemia | SR leukemia | CCRF-CEM leukemia | K-562 leukemia
> 100 µM: all other assays above

CC(Br)CN(CC(C)Br)c1ccc2c(c1)Cc1ccccc1-2 (stereo not drawn)
22.7 µM: PC-3 prostate | U251 CNS
26 µM: A498 renal
27.7 µM: HCT-15 colon
23.9 µM: HOP-62 NSCLC
20.7 µM: IGROV1 ovarian
21.1 µM: CAKI-1 renal
26.9 µM: NCI-H23 lung
24.4 µM: A549 NSCLC
19.6 µM: MCF7 breast
28 µM: MDA-MB-435 | RXF 393 renal
34.6 µM: MOLT-4 leukemia
40.2 µM: SW-620 colon
23.3 µM: SF-268 CNS
27.5 µM: COLO 205 colon
23 µM: DU-145 prostate
27.9 µM: SNB-19 CNS
20.9 µM: HOP-92 NSCLC
23.1 µM: 786-0 renal
30.7 µM: MDA-N
9.23 µM: NCI-H460 lung
21.2 µM: NCI-H522 lung
33.2 µM: K-562 leukemia
41.7 µM: HS 578T breast
19.5 µM: ACHN renal
26.8 µM: MDA-MB-231 breast
37.3 µM: SK-MEL-28 melanoma
24.3 µM: M14 melanoma
34.9 µM: OVCAR-5 ovarian
31.4 µM: KM12 colon
14.9 µM: SR leukemia
29.6 µM: SK-MEL-2 melanoma | T-47D breast
31.1 µM: SK-OV-3 ovarian
26.7 µM: SN12C renal
24.2 µM: UACC-62 melanoma
25.2 µM: SK-MEL-5 melanoma | OVCAR-8 ovarian | SNB-75 CNS
38.4 µM: NCI/ADR-RES ovarian
28.1 µM: UACC-257 melanoma
22.6 µM: SF-295 CNS
15.6 µM: HL-60(TB) leukemia
23.8 µM: HCT-116 colon
23.2 µM: LOX IMVI melanoma
24.9 µM: UO-31 renal | MALME-3M melanoma
71.8 µM: RPMI-8226 leukemia
30.3 µM: EKVX NSCLC
26.2 µM: TK-10 renal
25.9 µM: HT29 colon | OVCAR-4 ovarian
24 µM: OVCAR-3 ovarian
35.1 µM: BT-549 breast
> 100 µM: CCRF-CEM leukemia

CC(C)(C)[Si](C)(C)OC1CCOC1(O)c1ccccn1 (stereo not drawn)
not listed: SR leukemia
> 100 µM: all other assays above
